Source: patent EP0109255A2, “Glycerol derivatives” (ONO PHARMACEUTICAL CO., LTD., priority 1982, dated 1984)

Test system: mice
Assay: Acute toxicity by intravenous administration (tail vein)
Assay type: in vivo
Method: On the other hand, it was confirmed that the acute toxicity of all extent of the compounds of the present invention was more. than 30 mg/kg by intravenous administration. Therefore, glycerol derivatives of the present invention may be considered to be sufficiently safe and suitable for medical use. For example, the mortality (dead/used) in glycerol derivatives of the present invention, i.e. compounds prepared in Example 8, 8(j) and 8(r) was 2/10, 0/10 and 0/10, respectively, when each glycerol compound was intravenously administered to tail vein in ten mice at the dose of 30 mg/kg.

Row | Compound | mortality (dead/used) (intravenously administered to tail vein in ten mice at the dose of 30 mg/kg) | mortality (dead/used) (mouse, in vivo, iv, 30 mg/kg)
1 | CCCCCCCCCCCCCCCCOCC(COCCCC[N+](C)(C)C)NC(=O)OCCCC (racemic) [8 (j), (2RS)-l-0-hexadecyl-2-dehydroxy-2-butoxycarbonylamino-3-0-[4-(N,N,N-trimethylammonio)butyl]glycerol iodide] | 0/10 | 
2 | CCCCCCCCCCCCCCCCOCC(COCCCC[N+](C)(C)C)NC(=O)NCCC (stereo not drawn) [8 (r)] |  | 0/10
3 | CCCCCCCCCCCCCCCCOCC(COCCCC[N+](C)(C)C)NC(=O)c1ccccc1 (stereo not drawn) [Example 8] |  | 2/10
